Results from PubChem BioAssay AID192 (DTP/NCI, 2004).
Where “and” joins values, the source holds several entries; their conditions need not be identical. Identical values can stand only once. Inconclusive results and toxic doses are left out. How the source made its calls: active means survival T/C of 150% or more; inactive means T/C below 125% in these data.

Tested on: BDF1 mice, B16 melanoma ip, median survival T/C
Assay: NCI In Vivo Anticancer Drug Screen. Data for tumor model B16 Melanoma (intraperitoneal) in B6D2F1 (BDF1) mice
Conditions: endpoint: median survival time, higher = longer survival
Procedure, shortened: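 Antitumor activity is assessed in mice bearing a transplanted tumor, with survival or tumor size compared against vehicle-dosed controls and expressed as T/C.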

[1] = dose: 25.0 mg/kg/injection, schedule: Q01DX009 (ip), vehicle: saline with Tween-80
[2] = dose: 50.0 mg/kg/injection, schedule: Q01DX009 (ip), vehicle: saline with Tween-80
[3] = dose: 6.25 mg/kg/injection, schedule: Q01DX009 (ip), vehicle: Klucel (hydroxypropylcellulose) (HPC)
[4] = dose: 12.5 mg/kg/injection, schedule: Q01DX009 (ip), vehicle: Klucel (hydroxypropylcellulose) (HPC)
[5] = dose: 100.0 mg/kg/injection, schedule: Q01DX009 (ip), vehicle: saline with Tween-80
[6] = dose: 50.0 mg/kg/injection, schedule: Q01DX009 (ip), vehicle: saline
[7] = dose: 100.0 mg/kg/injection, schedule: Q01DX009 (ip), vehicle: saline
[8] = dose: 100.0 mg/kg/injection, schedule: Q01DX009 (ip), vehicle: Klucel (hydroxypropylcellulose) (HPC)
[9] = dose: 200.0 mg/kg/injection, schedule: Q01DX009 (ip), vehicle: saline

Measured: T/C

CCC12C=CCN3CCC4(c5cc(C(c6cccnc6)c6cc7ccccc7n6C)c(OC)cc5N(C)C4C(O)(C(=O)OC)C1OC(C)=O)C32 (configuration not stated)
inactive: dose: 0.06 mg/kg/injection, schedule: Q01DX009 (ip), vehicle: water 109 % of control | dose: 0.13 mg/kg/injection, schedule: Q01DX009 (ip), vehicle: water 103 % of control | dose: 0.25 mg/kg/injection, schedule: Q01DX009 (ip), vehicle: water 100 % of control | dose: 0.5 mg/kg/injection, schedule: Q01DX009 (ip), vehicle: water 113 % of control | dose: 1.0 mg/kg/injection, schedule: Q01DX009 (ip), vehicle: water 110 % of control | dose: 2.0 mg/kg/injection, schedule: Q01DX009 (ip), vehicle: other 104 % of control | dose: 2.0 mg/kg/injection, schedule: Q01DX009 (ip), vehicle: water 107 % of control | dose: 4.0 mg/kg/injection, schedule: Q01DX009 (ip), vehicle: other 95 % of control | dose: 8.0 mg/kg/injection, schedule: Q01DX009 (ip), vehicle: other 101 % of control | dose: 16.0 mg/kg/injection, schedule: Q01DX009 (ip), vehicle: other 105 % of control | dose: 32.0 mg/kg/injection, schedule: Q01DX009 (ip), vehicle: other 106 % of control

C[C@]12CC[C@H](O)C[C@@]1(O)CC[C@@H]1[C@@H]2CC[C@]2(C)[C@@H](c3ccc(=O)oc3)CC[C@]12O
inactive: dose: 1.25 mg/kg/injection, schedule: Q01DX009 (ip), vehicle: Klucel (hydroxypropylcellulose) (HPC) 94 % of control | dose: 2.5 mg/kg/injection, schedule: Q01DX009 (ip), vehicle: Klucel (hydroxypropylcellulose) (HPC) 92 % of control | dose: 5.0 mg/kg/injection, schedule: Q01DX009 (ip), vehicle: Klucel (hydroxypropylcellulose) (HPC) 92 % of control | dose: 10.0 mg/kg/injection, schedule: Q01DX009 (ip), vehicle: Klucel (hydroxypropylcellulose) (HPC) 94 % of control | dose: 12.5 mg/kg/injection, schedule: Q01DX009 (ip), vehicle: saline with Tween-80 96 % of control | dose: 20.0 mg/kg/injection, schedule: Q01DX009 (ip), vehicle: Klucel (hydroxypropylcellulose) (HPC) 94 % of control | [1] 94 % of control | [2] 92 % of control

Clc1c(Cl)c(CBr)c(Cl)c(CBr)c1Cl
inactive: dose: 1.56 mg/kg/injection, schedule: Q01DX009 (ip), vehicle: Klucel (hydroxypropylcellulose) (HPC) 100 % of control | [3] 105 % of control | [4] 102 % of control | dose: 12.5 mg/kg/injection, schedule: Q04DX003 (ip), vehicle: saline with Tween-80 86 % of control | [1] 95 % of control | dose: 25.0 mg/kg/injection, schedule: Q04DX003 (ip), vehicle: saline with Tween-80 92 % of control | [2] 97 % of control | [5] 95 % of control

O=C(O)c1cc2ccccc2cn1
inactive: [6] 102 % of control | [7] 100 % of control

CC(=O)Oc1ccc(/C=N/NC(N)=S)nc1
inactive: dose: 9.4 mg/kg/injection, schedule: Q01DX009 (ip), vehicle: saline with Tween-80 96 % of control | dose: 18.8 mg/kg/injection, schedule: Q01DX009 (ip), vehicle: saline with Tween-80 106 % of control | dose: 37.5 mg/kg/injection, schedule: Q01DX009 (ip), vehicle: saline with Tween-80 108 % of control | dose: 75.0 mg/kg/injection, schedule: Q01DX009 (ip), vehicle: saline with Tween-80 112 % of control | dose: 150.0 mg/kg/injection, schedule: Q01DX009 (ip), vehicle: saline with Tween-80 108 % of control

Nc1nc(-c2ccccc2)c(Br)c(=O)[nH]1
active: dose: 400.0 mg/kg/injection, schedule: Q01DX009 (ip), vehicle: saline with Tween-80 150 % of control

CC(=O)OC(C)C(=O)C(Cl)(Cl)Cl (configuration not stated)
inactive: [8] 96 % of control | dose: 200.0 mg/kg/injection, schedule: Q01DX009 (ip), vehicle: Klucel (hydroxypropylcellulose) (HPC) 107 % of control | dose: 400.0 mg/kg/injection, schedule: Q01DX009 (ip), vehicle: Klucel (hydroxypropylcellulose) (HPC) 107 % of control

CCCCC(=O)OCC(=O)[C@]1(O)Cc2c(O)c3c(c(O)c2[C@@H](OC2CC(NC(=O)C(F)(F)F)C(O)C(C)O2)C1)C(=O)c1c(OC)cccc1C3=O (some centres not stated)
active: dose: 32.0 mg/kg/injection, schedule: Q01DX009 (ip), vehicle: distilled water + Tween-80 180 % of control | dose: 64.0 mg/kg/injection, schedule: Q01DX009 (ip), vehicle: distilled water + Tween-80 158 % of control | dose: 75.0 mg/kg/injection, schedule: Q01DX001 (ip), vehicle: clinical formulation 191 % of control | dose: 128.0 mg/kg/injection, schedule: Q01DX009 (ip), vehicle: distilled water + Tween-80 288 % of control | dose: 150.0 mg/kg/injection, schedule: Q01DX001 (ip), vehicle: clinical formulation 169 % of control and 205 % of control
inactive: dose: 7.78 mg/kg/injection, schedule: Q01DX004 (ip), vehicle: other 106 % of control | dose: 9.38 mg/kg/injection, schedule: Q01DX001 (ip), vehicle: clinical formulation 111 % of control | dose: 13.0 mg/kg/injection, schedule: Q01DX004 (ip), vehicle: other 115 % of control | dose: 21.6 mg/kg/injection, schedule: Q01DX004 (ip), vehicle: other 122 % of control | dose: 36.0 mg/kg/injection, schedule: Q01DX004 (ip), vehicle: other 122 % of control

CCc1ccccc1NC(=O)Nc1ccc(Cl)c(Cl)c1
inactive: dose: 75.0 mg/kg/injection, schedule: Q01DX009 (ip), vehicle: Klucel (hydroxypropylcellulose) (HPC) 102 % of control | dose: 150.0 mg/kg/injection, schedule: Q01DX009 (ip), vehicle: Klucel (hydroxypropylcellulose) (HPC) 97 % of control | dose: 300.0 mg/kg/injection, schedule: Q01DX009 (ip), vehicle: Klucel (hydroxypropylcellulose) (HPC) 89 % of control

C1=CC2(OCCO2)C2CC=CC3(OCCO3)C2C1 (configuration not stated)
inactive: dose: 50.0 mg/kg/injection, schedule: Q01DX009 (ip), vehicle: Klucel (hydroxypropylcellulose) (HPC) 104 % of control | [8] 97 % of control

CN(C)c1n[nH]c(N)n1
inactive: dose: 12.5 mg/kg/injection, schedule: Q01DX009 (ip), vehicle: saline 91 % of control | dose: 25.0 mg/kg/injection, schedule: Q01DX009 (ip), vehicle: saline 102 % of control | [6] 95 % of control | [7] 96 % of control | [9] 102 % of control | dose: 400.0 mg/kg/injection, schedule: Q01DX009 (ip), vehicle: saline 104 % of control

Nc1c([N+](=O)[O-])ccc2ccccc12
inactive: dose: 100.0 mg/kg/injection, schedule: Q04DX003 (ip), vehicle: saline with Tween-80 108 % of control | dose: 200.0 mg/kg/injection, schedule: Q04DX003 (ip), vehicle: saline with Tween-80 91 % of control | dose: 400.0 mg/kg/injection, schedule: Q04DX003 (ip), vehicle: saline with Tween-80 100 % of control

NC(=O)C(O)C(O)C(O)C(O)C(N)=O (configuration not stated)
inactive: [7] 106 % of control | [9] 100 % of control

O=C1C=CC(=C(c2ccccc2)c2ccccc2)C=C1
inactive: [3] 96 % of control | [4] 100 % of control | dose: 12.5 mg/kg/injection, schedule: Q04DX003 (ip), vehicle: Klucel (hydroxypropylcellulose) (HPC) 96 % of control | dose: 25.0 mg/kg/injection, schedule: Q01DX009 (ip), vehicle: Klucel (hydroxypropylcellulose) (HPC) 96 % of control | dose: 25.0 mg/kg/injection, schedule: Q04DX003 (ip), vehicle: Klucel (hydroxypropylcellulose) (HPC) 100 % of control

O=C(Nc1ccccc1)c1ccc(Cl)c([N+](=O)[O-])c1
inactive: [1] 113 % of control | [2] 111 % of control | [5] 106 % of control
